Measured values from ChEMBL document CHEMBL3351528, “Targeting dopamine D3 and serotonin 5-HT1A and 5-HT2A receptors for developing effective antipsychotics: synthesis, biological characterization, and behavioral studies” (J Med Chem, 2014).

Legend:
Mus musculus [1] = experiment: Toxicity in NMRI mouse assessed as induction of catalepsy up to 90 mg/kg, sc dosed 30 mins before test; assay type: organism-based; design: dose 90 mg/kg, route subcutaneous; settings: in vivo, 0.5 h
Mus musculus [2] = experiment: Effect on startle response in mouse at 3 to 30 mg/kg, po; assay type: ADME, organism-based; design: dose 3-30 mg/kg, route oral; settings: in vivo
hERG (KCNH2) [3] = target: T1, hERG (KCNH2) (Homo sapiens, UniProt Q12809); experiment: Inhibition of human ERG at 10 uM by whole cell based electrophysiology assay
T1 sequence (Q12809 whole entry): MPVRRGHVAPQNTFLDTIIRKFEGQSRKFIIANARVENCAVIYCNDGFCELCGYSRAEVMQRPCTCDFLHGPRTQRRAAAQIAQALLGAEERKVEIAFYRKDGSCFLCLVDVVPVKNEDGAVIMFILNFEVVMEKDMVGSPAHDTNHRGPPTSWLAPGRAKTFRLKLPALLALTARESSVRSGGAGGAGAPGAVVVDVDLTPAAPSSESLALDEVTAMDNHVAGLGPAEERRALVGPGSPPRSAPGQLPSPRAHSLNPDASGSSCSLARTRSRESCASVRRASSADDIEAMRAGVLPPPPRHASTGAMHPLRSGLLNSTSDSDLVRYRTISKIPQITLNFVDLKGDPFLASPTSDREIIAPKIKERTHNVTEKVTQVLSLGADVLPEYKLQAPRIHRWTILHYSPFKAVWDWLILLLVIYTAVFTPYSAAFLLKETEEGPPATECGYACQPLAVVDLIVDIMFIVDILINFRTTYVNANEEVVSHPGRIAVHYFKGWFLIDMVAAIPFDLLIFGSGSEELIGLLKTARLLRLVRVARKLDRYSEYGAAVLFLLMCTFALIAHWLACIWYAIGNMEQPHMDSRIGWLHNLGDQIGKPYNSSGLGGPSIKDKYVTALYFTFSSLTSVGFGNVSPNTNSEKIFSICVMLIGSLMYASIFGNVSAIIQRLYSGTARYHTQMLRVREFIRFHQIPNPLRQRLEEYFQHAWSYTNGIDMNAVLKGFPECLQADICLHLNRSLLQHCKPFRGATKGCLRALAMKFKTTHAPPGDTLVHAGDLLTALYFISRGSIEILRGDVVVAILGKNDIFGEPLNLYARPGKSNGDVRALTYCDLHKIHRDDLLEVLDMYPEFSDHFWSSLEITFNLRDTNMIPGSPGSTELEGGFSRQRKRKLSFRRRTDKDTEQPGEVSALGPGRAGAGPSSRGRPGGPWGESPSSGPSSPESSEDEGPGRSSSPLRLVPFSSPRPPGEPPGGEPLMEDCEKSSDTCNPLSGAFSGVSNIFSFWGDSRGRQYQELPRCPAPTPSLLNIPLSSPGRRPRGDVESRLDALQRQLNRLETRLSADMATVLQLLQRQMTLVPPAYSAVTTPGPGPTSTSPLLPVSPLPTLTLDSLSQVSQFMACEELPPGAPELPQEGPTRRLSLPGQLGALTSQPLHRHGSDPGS

D(3) dopamine receptor = D(3) dopamine receptor (Homo sapiens, UniProt P35462)
Chain of D(3) dopamine receptor (P35462 whole entry): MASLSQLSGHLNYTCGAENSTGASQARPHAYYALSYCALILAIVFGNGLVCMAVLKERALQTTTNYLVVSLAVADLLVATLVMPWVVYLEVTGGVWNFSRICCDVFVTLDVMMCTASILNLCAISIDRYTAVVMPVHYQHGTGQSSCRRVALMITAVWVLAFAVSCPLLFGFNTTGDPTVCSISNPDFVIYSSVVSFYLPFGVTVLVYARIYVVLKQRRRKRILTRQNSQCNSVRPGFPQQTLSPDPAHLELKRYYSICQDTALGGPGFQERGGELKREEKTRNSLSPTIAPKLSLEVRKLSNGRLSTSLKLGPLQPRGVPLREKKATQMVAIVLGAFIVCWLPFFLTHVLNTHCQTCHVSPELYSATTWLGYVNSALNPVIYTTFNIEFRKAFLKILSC
Description: Binding affinity to dopamine D3 receptor (unknown origin)

[4] = target: T2, Adrenergic receptor alpha-2 (Homo sapiens, UniProt P08913+P18825+P18089); experiment: Binding affinity to alpha2 adrenoreceptor (unknown origin); assay type: protein assay
T2 sequence (P08913 whole entry): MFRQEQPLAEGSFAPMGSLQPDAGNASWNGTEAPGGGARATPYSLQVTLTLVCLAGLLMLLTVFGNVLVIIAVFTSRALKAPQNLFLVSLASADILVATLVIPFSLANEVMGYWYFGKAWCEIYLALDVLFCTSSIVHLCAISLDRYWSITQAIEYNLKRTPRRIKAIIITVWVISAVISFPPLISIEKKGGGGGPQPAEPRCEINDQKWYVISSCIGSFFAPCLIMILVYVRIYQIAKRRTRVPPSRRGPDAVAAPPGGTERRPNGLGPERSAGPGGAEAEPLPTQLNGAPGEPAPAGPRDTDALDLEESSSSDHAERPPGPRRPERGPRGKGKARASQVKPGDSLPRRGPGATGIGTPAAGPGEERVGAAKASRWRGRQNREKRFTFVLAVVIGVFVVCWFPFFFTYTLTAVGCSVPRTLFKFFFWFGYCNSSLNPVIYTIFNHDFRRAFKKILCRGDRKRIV
T2 sequence (P18825 whole entry): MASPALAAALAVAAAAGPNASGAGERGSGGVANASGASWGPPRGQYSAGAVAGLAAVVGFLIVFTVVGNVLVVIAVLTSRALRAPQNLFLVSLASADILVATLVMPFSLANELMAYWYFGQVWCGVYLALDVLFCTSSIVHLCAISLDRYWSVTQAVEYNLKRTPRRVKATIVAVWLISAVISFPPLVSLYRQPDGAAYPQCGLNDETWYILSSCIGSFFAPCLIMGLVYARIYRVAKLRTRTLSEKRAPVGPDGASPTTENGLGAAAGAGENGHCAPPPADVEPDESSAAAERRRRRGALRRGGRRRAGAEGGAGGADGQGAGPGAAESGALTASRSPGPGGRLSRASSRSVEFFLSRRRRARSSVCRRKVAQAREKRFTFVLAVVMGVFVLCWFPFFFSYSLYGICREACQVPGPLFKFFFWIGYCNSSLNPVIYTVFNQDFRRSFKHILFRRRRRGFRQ
T2 sequence (P18089 whole entry): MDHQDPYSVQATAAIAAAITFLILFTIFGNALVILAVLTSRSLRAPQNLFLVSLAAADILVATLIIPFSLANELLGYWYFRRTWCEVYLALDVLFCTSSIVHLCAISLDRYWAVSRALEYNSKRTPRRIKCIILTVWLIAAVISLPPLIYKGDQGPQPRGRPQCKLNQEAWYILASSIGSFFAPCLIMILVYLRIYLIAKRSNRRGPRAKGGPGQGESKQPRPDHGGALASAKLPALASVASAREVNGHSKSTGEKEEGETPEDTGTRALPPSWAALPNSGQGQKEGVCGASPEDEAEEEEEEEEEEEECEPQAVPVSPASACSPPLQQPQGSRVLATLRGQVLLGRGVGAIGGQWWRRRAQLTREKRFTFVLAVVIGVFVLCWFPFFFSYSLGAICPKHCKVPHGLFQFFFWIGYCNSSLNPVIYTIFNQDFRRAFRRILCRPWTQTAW

Heart [5] = experiment: Cardiotoxicity in Langendorff-perfused Sprague-Dawley rat heart assessed as effect on coronary perfusion pressure up to 10 uM; assay type: toxicity, tissue-based
Heart [6] = experiment: Cardiotoxicity in Langendorff-perfused Sprague-Dawley rat heart assessed as effect on left ventricle pressure up to 10 uM; assay type: toxicity, tissue-based
hERG (KCNH2) [7] = target: T1, hERG (KCNH2); experiment: Inhibition of human ERG at 1 uM by whole cell based electrophysiology assay
D(2) dopamine receptor = D(2) dopamine receptor (Homo sapiens, UniProt P14416)
Chain of D(2) dopamine receptor (P14416 whole entry): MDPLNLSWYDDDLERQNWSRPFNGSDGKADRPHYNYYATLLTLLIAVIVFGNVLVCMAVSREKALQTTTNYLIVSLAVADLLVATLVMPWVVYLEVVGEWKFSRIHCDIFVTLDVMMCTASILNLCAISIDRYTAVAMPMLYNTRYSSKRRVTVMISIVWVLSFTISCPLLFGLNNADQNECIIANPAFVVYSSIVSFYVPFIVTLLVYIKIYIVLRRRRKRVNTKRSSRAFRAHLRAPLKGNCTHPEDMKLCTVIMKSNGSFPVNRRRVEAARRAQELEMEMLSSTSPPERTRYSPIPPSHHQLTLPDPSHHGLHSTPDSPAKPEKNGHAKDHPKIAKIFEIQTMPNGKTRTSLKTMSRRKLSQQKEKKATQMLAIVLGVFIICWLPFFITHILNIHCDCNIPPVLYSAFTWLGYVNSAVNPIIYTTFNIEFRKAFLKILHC
Description: Binding affinity to dopamine D2 receptor (unknown origin)

hERG (KCNH2) [8] = target: T1, hERG (KCNH2); experiment: Inhibition of human ERG at 3 uM by whole cell based electrophysiology assay

`O=C(NCCCCN1CCN(c2ccccc2)CC1)c1ccc2ncccc2c1` was tested, and the Activity (Mus musculus [1]) was “Non-toxic”, the Activity (Mus musculus [2]) was “Non-toxic” and the inhibition at 10 µM (hERG (KCNH2) [3]) was 47%. For the same molecule, the Ki (D(3) dopamine receptor) was 0.6 nM, the Ki [4] was 150 nM and the Activity (Heart [5]) was “Non-toxic”. For the same molecule, the Activity (Heart [6]) was “Non-toxic”, the inhibition at 1 µM (hERG (KCNH2) [7]) was 10% and the Ki (D(2) dopamine receptor) was over 1000 nM. The inhibition at 3 µM (hERG (KCNH2) [8]) was 24%.
